This is an account of results in patent publication US20080249113A1, “Fungicidal Mixtures” (priority 2004, published 2008).

Holding throughout (format): in vivo
The subject of one assay is Alternaria solani. In words: Use Example 5: early blight of tomato caused by Alternaria solani, synergism test (Abbot efficacy, Colby). To be noted: individual active compound; for pest or weed control at 4 ppm: 4 ppm in the spray liquor. The method, then: (§1) For use examples 3 to 9, the active compounds, separately or jointly, were prepared as a stock solution comprising 0.25% by weight of active compound in acetone or DMSO. 1% by weight of the emulsifier Uniperol® EL (wetter having emulsifying and dispersant action based on ethoxylated alkylphenols) was added to this solution, and the mixture was diluted with water to the desired concentration.
(§2) The active compounds fosetyl-AI, epoxiconazole, triticonazole and pyraclostrobin were applied in their commercial formulation.
Leaves of potted plants of the cultivar “Goldene Königin” were sprayed to run off point with an aqueous suspension having the active compound concentration stated below. The next day, the leaves were infected with an aqueous spore suspension of Alternaria solani in a 2% strength biomalt solution having a density of 0.17×10^6 spores/ml. The plants were then placed in a water vapor-saturated chamber at temperatures between 20 and 22° C. After 5 days, the disease on the untreated but infected control plants had developed to such an extent that the infection could be determined visually in %.
A further test according to use example 3 was evaluated as follows:
(§3) The visually determined percentages of infected leaf areas were converted into efficacies in % of the untreated control:
(§4) The efficacy (E) is calculated as follows using Abbot's formula: […]
(§5) α corresponds to the fungicidal infection of the treated plants in % and β corresponds to the fungicidal infection of the untreated (control) plants in %
(§6) […]; The expected efficacies of mixtures of active compounds were determined using Colby's formula (Colby, S.R. “Calculating synergistic and antagonistic responses of herbicide combinations”, Weeds, 15, 20-22, 1967) and compared with the observed efficacies.
(§7) E=x+y−x·y/100 • E expected efficacy, expressed in % of the untreated control, when using the mixture of the active compounds A and B at the concentrations a and b • x efficacy, expressed in % of the untreated control, when using the active compound A at the concentration a • y efficacy, expressed in % of the untreated control, when using the active compound B at the concentration b

Another assay deals with Pyrenophora teres. In words: Use Example 7: net blotch of barley caused by Pyrenophora teres, 1 day protective application, synergism test. The settings on record: individual active compound. Here is the method:
as §1
Leaves of potted barley seedlings were sprayed to run off with an aqueous suspension having the active compound concentration stated below. 24 hours after the spray coating had dried on, the test plants were inoculated with an aqueous spore suspension of Pyrenophora [syn. Drechslera ] teres, the net blotch pathogen. The test plants were then placed in a greenhouse at temperatures between 20 and 24° C. and 95 to 100% relative atmospheric humidity. After 6 days, the extent of the development of the disease was determined visually in % infection of the entire leaf area.
as §3, §4, §5, §6, §7
In a further test according to use example 4, the following results were obtained: […]

The test system of a further assay is Puccinia recondita. In words: Use Example 6: protective activity against Puccinia recondita on wheat (brown rust of wheat). To be noted: individual active compound. Here is the method:
as §1, §2, §3, §4, §5, §6, §7
Leaves of potted wheat seedlings of the cultivar “Kanzler” were sprayed to run off point with an aqueous suspension having the active compound concentration stated below. The next day, the treated plants were inoculated with a spore suspension of brown rust of wheat (Puccinia recondite). The plants were then placed in a chamber with high atmospheric humidity (90 to 95%) at 20 to 22° C. for 24 hours. During this time, the spores germinated and the germ tubes penetrated into the leaf tissue. The next day, the test plants were returned to the greenhouse and cultivated at temperatures between 20 and 22° C. and 65 to 70% relative atmospheric humidity for a further 7 days. The extent of the rust fungus development on the leaves was then determined visually.

Setting [1] is: Alternaria solani, 120 h, read-out: Efficacy in % of the untreated control.
[2] abbreviates: Alternaria solani, 120 h, 16 ppm in the spray liquor, read-out: Efficacy in % of the untreated control.
[3] abbreviates: Alternaria solani, 120 h, 63 ppm in the spray liquor, read-out: Efficacy in % of the untreated control.

As to `Fc1ccc([C@]2(Cn3cncn3)O[C@H]2c2ccccc2Cl)cc1` (racemic) [epoxiconazole, (2RS, 3SR)-1-[3-(2-chlorophenyl)-2,3-epoxy-2-(4-fluorophenyl)propyl]-1H-1,2,4-triazole], the pest or weed control at 4 ppm in the assay on Alternaria solani (setting [1]) stood at 56%. Same read-out and setting: the result for `COCC(=O)N(c1c(C)cccc1C)C(C)C(=O)OC` (racemic) [metalaxyl, methyl N-(methoxyacetyl)-N-(2,6-xylyl)-DL-alaninate] reads 0%. For `Cc1ccccc1-c1c(Cl)nc2ncnn2c1N1CCC(C)CC1` [Compound A-31, 5-chloro-6-(2-methylphenyl)-7-(4-methylpiperidin-1-yl)-1,2,4-triazolo[1,5a]pyrimidine], the “Efficacy in % of the untreated control” value in the assay with Pyrenophora teres (16 ppm in the spray liquor) came to 33%; in the assay with Pyrenophora teres (63 ppm in the spray liquor), 67%; with Puccinia recondita (16 ppm in the spray liquor) it was 22%; in the assay on Alternaria solani (63 ppm in the spray liquor), 78%. `O=C(Nc1ccccc1-c1ccc(Cl)cc1)c1cccnc1Cl` [boscalid, 2-chloro-N-(4′-chlorobiphenyl-2-yl)nicotinamide]: the pest or weed control at 16 ppm with Alternaria solani (setting [2]) is 22%. `N#Cc1c(Cl)c(Cl)c(Cl)c(C#N)c1Cl` [chlorothalonil, 2,4,5,6-tetrachloroisophthalonitrile]: the “Efficacy in % of the untreated control” value with Puccinia recondita (16 ppm in the spray liquor) was 17%. The pest or weed control at 63 ppm with Alternaria solani (setting [3]) turned out to be 0%.

With `Cc1ccc(-c2c(Cl)nc(C#N)n2S(=O)(=O)N(C)C)cc1` [cyazofamid, 4-chloro-2-cyano-N,N-dimethyl-5-p-tolylimidazole-1-sulfonamide], in the assay with Alternaria solani (setting [2]), the pest or weed control at 16 ppm came to 0%. Further, in the assay with Alternaria solani (setting [3]), the pest or weed control at 63 ppm came to 0%. Also, the pest or weed control at 250 ppm in the assay on Alternaria solani (Alternaria solani, 120 h, 250 ppm in the spray liquor, read-out: Efficacy in % of the untreated control) was determined as 0%. As to `COc1ccc(C(=CC(=O)N2CCOCC2)c2ccc(Cl)cc2)cc1OC` [dimethomorph, 3-(4-chlorophenyl)-3-(3,4-dimethoxyphenyl)-1-morpholin-4-ylpropenone], the “Efficacy in % of the untreated control” value in the assay with Puccinia recondita (16 ppm in the spray liquor) and in the assay on Puccinia recondita (63 ppm in the spray liquor) was 0% each time. In the case of `N#Cc1sc2c(=O)c3ccccc3c(=O)c=2sc1C#N` [dithianon, 5,10-dioxo-5,10-dihydronaphtho[2,3-b][1,4]dithiine-2,3-dicarbonitrile], the “Efficacy in % of the untreated control” value with Pyrenophora teres (16 ppm in the spray liquor) is given as 0%. As for `CC(Cc1ccc(C(C)(C)C)cc1)CN1CC(C)OC(C)C1` (centres unmarked) [fenpropimorph, 4-[3-(4-tert-butylphenyl)-2-methylpropyl]-2,6-dimethylmorpholine], the “Efficacy in % of the untreated control” value in the assay with Puccinia recondita (16 ppm in the spray liquor) and in the assay on Puccinia recondita (63 ppm in the spray liquor) was 0% in each case. For `O=C1c2ccccc2C(=O)N1SC(Cl)(Cl)Cl` [folpet, 2-trichloromethylsulfanylisoindole-1,3-dione], in the assay with Alternaria solani (setting [3]), the pest or weed control at 63 ppm was found to be 0%. As to `CO/N=C(/C(=O)OC)c1ccccc1COc1ccccc1C` [kresoxim-methyl, methyl (E)-methoxyimino[α-(otolyloxy)-otolyl]acetate], the “Efficacy in % of the untreated control” value in the assay on Puccinia recondita (1 ppm in the spray liquor) and in the assay with Puccinia recondita (4 ppm in the spray liquor) was 0% throughout. Regarding `CCCN(CCOc1c(Cl)cc(Cl)cc1Cl)C(=O)n1ccnc1` [prochloraz, N-propyl-N-[2-(2,4,6-trichlorophenoxy)ethyl]imidazole-1-carboxamide], the “Efficacy in % of the untreated control” value with Puccinia recondita (4 ppm in the spray liquor) and in the assay on Puccinia recondita (16 ppm in the spray liquor) was 0% in each case.

On to `OC(Cc1ccccc1Cl)(Cn1nc[nH]c1=S)C1(Cl)CC1` (centres unmarked) [prothioconazole, 2-[2-(1-chlorocyclopropyl)-3-(2-chlorophenyl)-2-hydroxypropyl]-2,4-dihydro-[1,2,4]triazole-3-thione], for which the pest or weed control at 4 ppm in the assay with Alternaria solani (setting [1]) worked out at 22%. For `Cc1cc(C)nc(Nc2ccccc2)n1` [pyrimethanil, 4,6-dimethylpyrimidin-2-ylphenylamine], the “Efficacy in % of the untreated control” value in the assay on Puccinia recondita (16 ppm in the spray liquor) stood at 0%. Consider `CC1(C)CCC(=Cc2ccc(Cl)cc2)C1(O)Cn1cncn1` (centres unmarked) [triticonazole, 5-(4-chlorobenzylidene)-2,2-dimethyl-1-[1,2,4]triazol-1-ylmethylcyclo-pentanol], for which the pest or weed control at 4 ppm with Alternaria solani (setting [1]) is 0%. With “manganese ethylenebis(dithiocarbamate) zinc complex [mancozeb]”, the “Efficacy in % of the untreated control” value in the assay with Puccinia recondita (16 ppm in the spray liquor), in the assay on Puccinia recondita (63 ppm in the spray liquor), in the assay on Alternaria solani (16 ppm in the spray liquor) and in the assay on Alternaria solani (63 ppm in the spray liquor) was 0% each time.
